Patent publication US20100197908A1 (Boehringer Ingelheim International GmbH, priority 2006, published 2010)
Where a name gives a salt, the structure may show the parent alone.

molecular target: T1, hMCH-1R (Homo sapiens, UniProt Q99705); assay: MCH-1 receptor binding test (125I-MCH binding to membranes of hMCH-1R transfected CHO/Galpha16 cells); details: membranes of CHO/Galpha16 cells stably transfected with human hMCH-1R, 100 pM 125I-MCH
T1 construct: expressed in transfected cells; host or cells: CHO/Galpha16 cells (stably transfected), membranes
T1 sequence (Q99705 whole entry): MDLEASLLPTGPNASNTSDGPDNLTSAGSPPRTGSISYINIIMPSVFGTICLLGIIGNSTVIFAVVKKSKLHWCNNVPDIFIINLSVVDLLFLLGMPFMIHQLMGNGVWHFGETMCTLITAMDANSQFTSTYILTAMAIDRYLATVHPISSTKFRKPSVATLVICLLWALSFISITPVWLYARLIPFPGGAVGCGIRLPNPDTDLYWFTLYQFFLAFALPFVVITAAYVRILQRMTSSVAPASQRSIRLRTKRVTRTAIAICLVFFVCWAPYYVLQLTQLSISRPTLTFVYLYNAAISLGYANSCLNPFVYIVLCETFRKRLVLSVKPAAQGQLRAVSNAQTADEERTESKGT
Experimental: After the incubation the reaction is filtered using a cell harvester through 0.5% PEI treated fibreglass filters (GF/B, Unifilter Packard). The membrane-bound radioactivity retained on the filter is then determined after the addition of scintillator substance (Packard Microscint 20) in a measuring device (TopCount of Packard). […] The analysis of the concentration binding curve is carried out on the assumption of one receptor binding site.

Row | IC50 | Compound
1 | 590 nM | CN(Cc1ccccc1)c1ccc(CCc2ccc(CN3CCCC3)cc2)nn1 [Example 16.2, Benzyl-methyl-{6-[2-(4-pyrrolidin-1-ylmethyl-phenyl)-ethyl]-pyridazin-3-yl}-amine]
2 | 13 nM | Fc1ccccc1COc1ccc(CCc2ccc(CN3CCCC3)cc2)nn1 [Example 12.2, 3-(2-Fluoro-benzyloxy)-6-[2-(4-pyrrolidin-1-ylmethyl-phenyl)-ethyl]-pyridazine trifluoroacetate]
3 | 16 nM | c1ccc(COc2ccc(CCc3ccc(CN4CCCC4)cn3)nn2)cc1 [Example 4.1]
4 | 4 nM | OC1CCN(CCc2ccc(CCc3ccc(OCc4ccccc4)nn3)nc2)CC1 [Example 31.10]
5 | 20 nM | c1ccc(COc2ccc(CCc3ccc(CNCc4cccnc4)cn3)nn2)cc1 [Example 4.2]
6 | 4 nM | c1ccc(COc2ccc(CCc3ccc(CN4CCOCC4)cc3)nn2)cc1 [Example 1.1, 4-{4-[2-(6-Benzyloxy-pyridazin-3-yl)-ethyl]benzyl}-morpholine]
7 | 19 nM | CC(=O)N1CCN(CCOc2ccc(CCc3ccc(OCc4ccccc4)nn3)nc2)CC1 [Example 29.10]
8 | 9 nM | COC1CCN(Cc2ccc(C(=O)Cc3ccc(OCc4ccc(F)cc4)nn3)cc2)CC1 [Example 15.1, 2-[6-(4-Fluoro-benzyloxy)-pyridazin-3-yl]-1-[4-(4-methoxy-piperidin-1-ylmethyl)-phenyl]-ethanone]
9 | 4 nM | COCCN(C)Cc1ccc(CCc2ccc(OCc3ccc(F)cc3)nn2)cc1 [Example 10.5]
10 | 8 nM | CC1CCCCN1Cc1ccc(CCc2ccc(OCc3ccccc3)nn2)nc1 (centres unmarked) [Example 4.4]
11 | 136 nM | OC1CCN(Cc2ccc(CCc3ccc(OCC4CCCCO4)nn3)cc2)CC1 (centres unmarked) [Example 22.2, 1-(4-{2-[6-(Tetrahydro-pyran-2-ylmethoxy)-pyridazin-3-yl]-ethyl}-benzyl)-piperidin-4-ol]
